Source: PMC4751939, “Antileishmanial Activity of Compounds Derived from the Medicines for Malaria Venture Open Access Box against Intracellular Leishmania major Amastigotes” (The American Journal of Tropical Medicine and Hygiene, 2016)
Like-named read-outs stand apart in the source and are kept apart here.

How the values were obtained:
Format in all cases: cell-based
[1] = test system: intracellular Leishmania major amastigotes (luciferase-expressing, in RAW 264.7 macrophages); assay: Luciferase-expressing intracellular L. major amastigote-macrophage dose-response assay
Method: Macrophages were harvested from culture by removing all spent media, adding in 10 mL of fresh media, scraping adherent macrophages from the culture flask, and counting macrophages using trypan blue. The cells were resuspended at 2.0 × 10^5 cells/mL, and then dispensed in a volume of 50 μL to yield a final concentration of 10,000 macrophages/well in 384-well tissue culture–treated sterile white plates (Nunc/Thermo Fisher, Rochester, NY) using a Tecan EVO Freedom robotics system (Tecan U.S., Durham, NC). The plates were then incubated at 37°C in 5% CO2 atmosphere for 24 hours. After incubation, the media was removed from each well using the Tecan EVO Freedom robot, and 1 × 10^5 transfected L. major promastigotes were added to each well in a volume of 50 μL in DMEM/heat-inactivated fetal bovine serum (HIFBS) media and allowed to invade the macrophages. After overnight incubation, the media was removed from each well using the Tecan Freedom EVO robot, and each well was subsequently washed three times with 40 μL of fresh DMEM/HIFBS medium to remove all extracellular promastigotes. After the third wash, 69.2 μL of DMEM/HIFBS medium was added to each well using the Tecan EVO Freedom robot. Drug plates were prepared with the Tecan EVO Freedom using sterile 96-well plates containing 12 duplicate 2-fold serial dilutions of each test compound suspended in dimethyl sulfoxide (DMSO) for dose–response determinations. Of diluted test compound, 7.8 μL was added to the 69.2 μL media present in each well providing a 10-fold final dilution of compound. The final concentration range tested was 0.0005–1 μM for all assays. The plates were placed in a modular incubator chamber (Billups-Rothenburg, Del Mar, CA) that contained a humidity source, consisting of soaked gauze in a weigh boat, which was placed in the bottom of the chamber. Both valves on the system were opened and using a vent filter (Millipore, Billerica, MA), attached to the one valve, mixed gas containing 5% O2, 5% CO2, and a balance of nitrogen was allowed to pass through the system for 60 seconds. After 60 seconds, the exit valve was closed and the mixed gas was allowed to flow into the chamber for 10 seconds. At that point the remaining valve was closed. Chambers were gassed every other day. The chambers were incubated at 37°C for 96 hours. After 96 hours of incubation, 7.5 μL luciferin solution (Caliper Life Science, Hopkinton, MA) diluted to 150 μg/mL was added to each well, and the plates were incubated for 30 minutes at 37°C in the dark. Each plate was read using an Infinite M200 plate reader (Tecan Inc., Durham, NC).
The 50% inhibitory concentrations (IC50) were then generated for each dose–response test using GraphPad Prism (GraphPad Software Inc., San Diego, CA) using the nonlinear regression (sigmoidal dose–response/variable slope) equation.

[2] = MTT cytotoxicity assay; conditions: human, HepG2 cells, 48-hour incubation
Method: (§1) An 3-(4,5-dimethylthiazol-2-yl)-2,5-diphenyltetrazolium bromide (MTT) cytotoxicity counter assay was used to test all compounds from the MMV Malaria Box for cytotoxicity. The 384-well MTT cytotoxicity assay is a modification of the MTT method described by Ferrari and others[29] optimized for 384-well throughput. HepG2 target cells for this assay were cultured in […]. The HepG2 target cells for this assay were cultured as follows: HepG2 cells were cultured in complete Minimal Essential Medium (MEM; catalog no. 11090-099, Gibco-Invitrogen) prepared by supplementing MEM with 0.19% sodium bicarbonate (catalog no. 25080-094, Gibco-BRL), 10% HIFBS (catalog no. 16000-036, Gibco-Invitrogen, Grand Island, NY), 2 mM L-glutamine (catalog no. 25030-081, Gibco-Invitrogen), 0.1 mM MEM nonessential amino acids (catalog no. 11140-050, Gibco-Invitrogen), 0.009 mg/mL insulin (catalog no. I1882, Sigma), 1.76 mg/mL bovine serum albumin (catalog no. A1470, Sigma), 20 units/mL penicillin–streptomycin (catalog no. 15140-148, Gibco-Invitrogen), and 0.05 mg/mL gentamycin (catalog no. 15710-064, Gibco-Invitrogen). HepG2 cells cultured in complete MEM were first washed with 1× Hank's Balanced Salt Solution (catalog no. 14175-095, Invitrogen), trypsinized using a 0.25% trypsin/ethylenediaminetetraacetic acid solution (catalog no. 25200-106, Invitrogen), assessed for viability using trypan blue, and resuspended at 250,000 cells/mL. Drug plates were prepared with the Tecan EVO Freedom using sterile 96-well plates containing 12 duplicate 1.6-fold serial dilutions of each test compound suspended in DMSO. Of diluted test compound, 4.25 μL was then added to the 38.3 μL of media in each well providing a 10-fold final dilution of compound. Compounds were tested from a range of 57 to 10,000 ng/mL for all assays. The 4-azaindolo[2,1-b]quinazoline-6,12-dione was used as a toxicity control. After a 48-hour incubation period, 8 μL of a 1.5 mg/mL solution of MTT diluted in complete MEM media was added to each well. All plates were subsequently incubated in the dark for 1 hour at room temperature. After incubation, the media and drugs in each well was removed by shaking plate over sink, the plates were then left to dry in hood for 15 minutes. Next, 30 μL of isopropanol acidified by addition of hydrochloric acid at a final concentration of 0.36% was added to dissolve the formazan dye crystals created by reduction of MTT. Plates are put on a three-dimensional rotator for 15–30 minutes. Absorbance was determined in all wells using a Tecan icontrol 1.6 Infinite plate reader. The IC50 determinations were then generated for each toxicity dose–response test using GraphPad Prism (GraphPad Software Inc., San Diego, CA) using the nonlinear regression (sigmoidal dose–response/variable slope) equation.

[3] = test system: HepG2 cells; assay: MTT cytotoxicity assay; conditions: 48-hour incubation
Method: as §1

[4] = Leishmania major, RAW264.7, transgenic luciferase expressing intracellular L. major amastigote-macrophage parasites, 96 hours, read-out: Geometric mean L. major IC50 ± SD (n)
[5] = Leishmania major, RAW264.7, MMV Malaria Box L. major hits, intracellular amastigotes, 96 hours, read-out: IC50
[6] = Leishmania major, RAW264.7, rounded values quoted in the discussion, read-out: L. major amastigote-macrophage IC50

| Molecule | IC50 [1, 5] [nM] | IC50 at 48 h [2] [nM] | further results |
| --- | --- | --- | --- |
| CCN(CC)CCCCCCNc1cc(OC)cc2c(C)ccnc12 [Sitamaquine, reference compound] |  |  | IC50 [1, 4]: 10000 ± 370 nM |
| COc1ccc(CCN2CCC(CN(C)Cc3cnn(-c4ccccc4)c3)CC2)cc1 [MMV666069] | 366 | 5820 |  |
| CCOC(=O)c1cn(CC)c2cc(N3CCCCC3)c(F)cc2c1=O [MMV665827, ethyl 1-ethyl-6-fluoro-4-oxo-7-piperidin-1-ylquinoline-3-carboxylate] | 478 | 1720 |  |
| Cc1ccc(Cn2c(N3CCC(C(=O)NCc4cccs4)CC3)nc3ccccc32)cc1 [MMV007564, 1-[1-[(4-methylphenyl)methyl]benzimidazol-2-yl]-N-(thiophen-2-ylmethyl)piperidine-4-carboxamide] | 60.8 | > 6060 | IC50 [1, 6]: 61 nM |
| CCCCCCCCCCCCCCCCOP(=O)([O-])OCC[N+](C)(C)C [Miltefosine, reference compound] |  |  | IC50 [1, 4]: 550 ± 30 nM |
| CCOc1ccc(N2C(N)=NC(N)=NC2(C)C)cc1 [MMV667486, 1-(4-ethoxyphenyl)-6,6-dimethyl-1,3,5-triazine-2,4-diamine] | 193 | > 6060 |  |
| N=C(N)c1ccc(OCCCCCOc2ccc(C(=N)N)cc2)cc1 [Pentamidine, reference compound] |  |  | IC50 [1, 4]: 3420 ± 1700 nM |
| COc1ccc(CCNC(=O)c2cc(S(=O)(=O)N3CC(C)CC(C)C3)ccc2Sc2ccc(F)cc2)cc1OC (stereo not drawn) [MMV007557, N-[2-(3,4-dimethoxyphenyl)ethyl]-5-(3,5-dimethylpiperidin-1-yl)sulfonyl-2-(4-fluorophenyl)sulfanylbenzamide] | 180 | > 6060 |  |
| C[C@@H]1[C@H](O)[C@@H](C)/C=C/C=C/C=C/C=C/C=C/C=C/C=C/[C@H](O[C@@H]2O[C@H](C)[C@@H](O)[C@H](N)[C@@H]2O)C[C@@H]2O[C@](O)(C[C@@H](O)C[C@@H](O)[C@H](O)CC[C@@H](O)C[C@@H](O)CC(=O)O[C@H]1C)C[C@H](O)[C@H]2C(=O)O [Amphotericin B, reference compound] |  |  | IC50 [1, 4]: 27 ± 10 nM |
| NC[C@@H]1O[C@H](O[C@H]2[C@@H](O)[C@H](O[C@@H]3[C@@H](O)[C@H](N)C[C@H](N)[C@H]3O[C@H]3O[C@H](CO)[C@@H](O)[C@H](O)[C@H]3N)O[C@@H]2CO)[C@H](N)[C@@H](O)[C@@H]1O [Paromomycin, reference compound] |  |  | IC50 [1, 4]: 780 ± 310 nM |
| O=C(NC(c1ccccc1)c1ccc2cccnc2c1O)c1ccccc1 (stereo not drawn) [MMV666080, N-[(8-hydroxyquinolin-7-yl)-phenylmethyl]benzamide] | 14.9 | > 6060 | IC50 [1, 6]: 15 nM |
| O=[N+]([O-])c1ccc(C=NNc2nc3ccccc3[nH]2)cc1 [MMV666607, 2-{2-[(4-nitrophenyl)methylidene]hydrazin-1-yl}-1H-1,3-benzodiazole] | 134 | > 6060 | IC50 [1, 6]: 134 nM |
| Cc1ccccc1OCCSc1nc2ccc(NC(=O)c3cccs3)cc2s1 [MMV007396, N-[2-[2-(2-methylphenoxy)ethylsulfanyl]-1,3-benzothiazol-6-yl]thiophene-2-carboxamide] | 120 | 3500 |  |
| CCCCCn1c(=N)n(CC(O)COc2cccc(C)c2)c2ccccc21 (stereo not drawn) [MMV000444, 1-(2-imino-3-pentylbenzimidazol-1-yl)-3-(3-methylphenoxy)propan-2-ol] | 267 | 4130 |  |
| 2-{2-[(4-nitrophenyl)methylidene]hydrazin-1-yl}-1H-1,3-benzodiazole [MMV666023] |  |  | IC50 ([1]; MMV Malaria Box L. major hits, intracellular amastigotes, 96 hours, read-out: IC50): 91.7 nM; IC50 ([1]; rounded values quoted in the discussion, read-out: L. major amastigote-macrophage IC50): 92 nM; IC50 [3]: 1300 nM |
| C[n+]1c2ccccc2nc2ccc(NCCO)cc21 [MMV396693, 2-[(10-methylphenazin-10-ium-2-yl)amino]ethanol] |  | 5660 | IC50 ([1]; Leishmania major, RAW264.7, 96 h): 53.4 nM |
| Cc1c(C)n(Cc2ccc(F)cc2)c2ccc(C(=O)NCc3ccco3)cc12 [MMV008149, 1-[(4-fluorophenyl)methyl]-N-(furan-2-ylmethyl)-2,3-dimethylindole-5-carboxamide] | 229 | 3260 |  |
| CC(=O)N1CCN(c2ccc(OCC3COC(Cn4ccnc4)(c4ccc(Cl)cc4Cl)O3)cc2)CC1 (stereo not drawn) [Ketoconazole, reference compound] |  |  | IC50 [1, 4]: 19800 ± 3900 nM |
| c1ccc(CNc2nc(Nc3ccccc3)nc3ccccc23)cc1 [MMV006169, N-phenyl-N′-(phenylmethyl)quinazoline-2,4-diamine] | 467 | 5660 |  |
| CCCCN(CCCC)S(=O)(=O)c1ccc(NC(=O)c2ccco2)cc1 [MMV007881, N-[4-(dibutylsulfamoyl)phenyl]furan-2-carboxamide] | 418 | 5600 |  |
| O=C(O)[C@@H]1[O][Sb](=[O])([O][Sb]2(=[O])[O][C@H]([C@H](O)CO)[C@H](O)[C@H](C(=O)O)[O]2)[O][C@H]([C@H](O)CO)[C@@H]1O.[Na+].[Na+].[Na+] (stereo partly drawn) [Pentostam, reference compound] |  |  | IC50 ([1]; transgenic luciferase expressing intracellular L. major amastigote-macrophage parasites, 96 hours, read-out: Geometric mean L. major IC50 ± SD (n)): 9080 ± 350 nM |
